From patent US20230372337A1, “Combination Therapy Comprising an AXL Inhibitor” (BERGENBIO ASA, priority 2020, published 2023)
Values joined by “and” are separate entries in the source; they are usually repeats but may differ in a detail not shown here. Identical values can stand only once.

What was measured:
[1] = system: 4T1 mammary carcinoma cells; assay: Metastasis, tumor weight and spleen weight post sacrifice, 4T1 model (Example 1); assay type: in vivo, BALB/c mice; conditions: for Lung macro metastasis: count per animal (A1-A15) after sacrifice, 10+ = massive lung metastasis; for Average spleen weight / Average tumor weight: post sacrifice, average of each group
Protocol: Spleens were weighed and inspected for macroscopic metastasis and cut in half along the long axis. Half of the spleen was snap frozen, with the other half fixed in 4% formalin for 24 hours at room temperature and stored in 70% ethanol at 4° C. until embedding in paraffin.
Livers were inspected for macroscopic metastasis and fixed in 4% formalin for 24 hours at room temperature and stored in 70% ethanol at 4° C. until embedding in paraffin.
Lungs were inspected for macroscopic metastasis and fixed in 4% formalin for 24 hours at room temperature and stored in 70% ethanol at 4° C. until embedding in paraffin.
Tumors were weighed and cut in half along the long axis, one half was snap frozen in liquid nitrogen in 2 cryotubes per tumor, while the other half was fixed in 4% formalin for 24 hours at room temperature and stored in 70% ethanol at 4° C. until embedding in paraffin.

Type I IFN related genes = assay: RT2 Profiler PCR Array Mouse Type I Interferon Response on 4T1 tumors (Example 1 mechanistic study); assay type: in vivo, BALB/c mice; conditions: 4T1 tumors day 19; one animal per group compared to one of the controls
Protocol: RNA was extracted from snap frozen tumors using the RNEasy Microarray Tissue Mini kit from Qiagen following the manufacturer's instructions. As tumors contained Doxorubicin and powderizing them could expose personnel to harmful substances, the RNA was extracted in a closed system using the GentleMACS dissociator and M Tubes. Purity and concentration of RNA was measured using Nanodrop. cDNA was synthesized from RNA using the RT2 First Strand kit (Qiagen) according to the manufacturer's instructions. cDNA was mixed with RT2 SYBR Green Mastermix (Qiagen) and loaded into RT^2 Profiler™ PCR Array Mouse Type I Interferon Response, to analyze the expression of the 84 genes listed in Table 2. The plates were analysed using a Light Cycler 480 (Roche) and data were analysed using the Qiagen Data Analysis Centre and Graph Pad (Prism).
16 animals were used in the mechanistic study and were sacrificed day 19 post implantation, 3 days after Doxorubicin injection. […] The 4 animals from group A (no treatment) were used as controls. The fold changes of 4 animals of group B (Bemcentinib), group F (Doxorubicin) and group H (Bemcentinib+Doxorubicin) are expressed as compared to the control animals (group A).

[2] = system: type I IFN related genes (ISG); assay: RT2 Profiler PCR Array Mouse Type I Interferon Response on 4T1 tumors (Example 2); assay type: in vivo, Balb/c mice
Text: Bemcentinib was given as a loading dose for 3 days (11-13 after tumor implantation) and then as a standard dose until sacrifice.
9 mice have been excluded of the study because of the absence of tumor on day 11. On day 11 post implantation half of the cages were placed in the bemcentinib treated group and the other half in the […]. The average tumor volume when bemcentinib treatment was initiated (day 11) was 54.99 mm^3. […] The tumor volumes when bemcentinib treatment was initiated and the day of randomization are recorded in table 8. The intra tumomoral injection of doxorubicin and sting agonists was adjusted to the tumor volume.
Doxorubicin is provided in a 2 mg/ml solution. As it is technically challenging to inject 50 ul liquid into tumors measuring <100 mm^3, the total dosing volume was calculated based on the following formula: V=50 ul×(TV/120). This is done to minimize variability due to leakage during intratumoral injection. For the 1 mg/kg dose (E,F) Doxorubicin was given at a concentration of 0.5 mg/ml, which corresponds to 1 mg/kg for a 25 g mouse with a tumor of 120 mm^3, and 1 mg/kg for a 20 g mouse with a tumor of 100 mm^3. For 3 mg/kg dose (G,H), a solution of 1.5 mg/ml was used and same volumes was injected. For the 6 mg/kg dose (I,J) the commercial solution of 2 mg/ml will be used and 75 ul was injected for tumor with a volume of 120 mm^3.
The same formula as for doxorubicin was used V=50 ul×(TV/120).
RNA was extracted from […] snap frozen tumors using the RNEasy Microarray Tissue Mini kit from Qiagen following the manufacturer's instructions. As tumors contained Doxorubicin and powderizing them could expose personnel to harmful substances, the RNA was extracted in a closed system using the GentleMACS dissociator and M Tubes. Purity and concentration of RNA was measured using Nanodrop. cDNA was synthesized from RNA using the RT^2 First Strand kit (Qiagen) according to the manufacturer's instructions. cDNA was mixed with RT^2 SYBR Green Mastermix (Qiagen) and loaded into RT Profiler™ PCR Array Mouse Type I Interferon Response or RT^2 Profiler™ PCR Array Mouse Epithelial to Mesenchymal Transition (EMT), analyzing the expression of 84 genes listed in Tables 9 and 10. The plates were analyzed using Light Cycler 480 (Roche) and data were analyzed using the Qiagen Data Analysis Centre and Graph Pad (Prism).
Quiagen RT^2 software was used to analyze all the samples from different groups. To be able to generate heatmaps and graph on fold change including error bars, the data have been analyzed manually with Graph Pad (Prism) when the Quiagen RT^2 software gave significant results between the different groups. For IFN type 1 response 1 mg/kg 48, 72 h and 3 mg/kg 48 h, were analyzed manually. For EMT, 1 mg/kg 48, 72 h, 3 mg/kg 72 h. When the data have been analyzed manually, the results are presented as histograms of mRNA fold changes. For the time points and doses analyzed by the software, the results are presented as tables.
GraphPadPrism was used to generate the heat maps, graphs with mRNA fold change, and to make the statistics. Multiple TTests, paired were performed on ΔΔ Ct values.
The expression of type I IFN related genes (ISG) was assessed in tumors collected 24, 48 and 72 hours after i.t. doxorubicin treatment. 3 groups were compared per timepoint: bemcentinib (bern), doxorubicin only (dox) and doxorubicin combined with bemcentinib (doxbern), the fold changes were compared with the control groups injected with PBS, and the fold change was 1 for the control groups.

Yumm 1.7 cells = assay: Metastasis, tumor weight and spleen weight, Yumm1.7 model (Example 3); assay type: in vivo, C57Bl6 mice; conditions: average on the day of sacrifice
Protocol: Spleens were weighed and prepared for Cytof (cut into pieces of 2 mm and frozen in FBS 90%, DMSO 10% and stored at −80° C. prior to dissociation).
Tumors were weighed and cut in 3 along the long axis, one third was snap frozen in liquid nitrogen in 2 cryotubes per tumor, another third was prepared for Cytof (Cut into pieces of 2 mm and frozen in FBS 90%, DMSO 10% and stored at −80C prior to dissociation). The last piece was fixed in 4% formalin for 24 hours at room temperature and stored in 70% ethanol at 4° C. until embedding in paraffin.

Yumm1.7 cells = assay: qRTPCR of IFN related genes in Yumm1.7 cells in vitro (Example 4); assay type: cell-based, mouse
[3] = system: 4T1 mammary carcinoma cells; assay: 4T1 syngeneic mammary carcinoma model, tumor growth and survival (Example 1); conditions: 4T1 model; for Effect on mouse survival: without the CPI treatment, 500 mm^3
Text: Exponentially growing 4T1 mammary carcinoma cells were harvested and re-suspended at 4×10^6 per ml in the mixture of serum-free RPMI medium and Matrigel (1:1). Only cells with over 95% viability have been used for in vivo study.
Each animal was weighed before cell implantation. Mice were anesthetized by inhalation of Sevoflurane. Anesthesia was induced at 8% Sevoflurane and maintained at 4%. Every mouse was placed on a heating pad and appropriately marked. Under a suitable depth of unconsciousness, animals were shaved, and the skin and surrounding region washed with Chlorhexidine (1 mg/ml) with use of sterile gauze. Injection was done orthotopically with one tumor per mouse with 0.05 ml of approximately 2×10^5 4T1 cells in serum-free RPMI medium/Matrigel (1:1).
2 randomizations were performed on 150 mice in 30 cages, with 5 animals per cage. The first randomization was performed on day 11 post implantation. The average of tumor volume of animals in each cage was determined. The average tumor volume in the cages was from 3.8 mm^3 to 19.7 mm^3. […] The first randomization was conducted with Latin square method based on the average tumor volume of all animals in each cage. […] Once the average tumor size reached 70 mm^3 for vehicle treated animals and 76 mm^3 for bemcentinib treated animals (tumor volume=L×W×W/2) the second randomization was performed prior to injection of chemotherapeutic agent (doxorubicin) on day 16. Randomization 2 was conducted with Latin square method based on average tumor volume of all animals in the bemcentinib group and in the vehicle group from randomization 1. […]
Tumor growth was measured with a digital hand held caliper at least twice weekly (once tumor emerges), prior to the first dosing, and then on the day of euthanasia.
When tumors reached an average of 7-170 mm^3, each animal received Doxorubicin (Dox) at a concentration of 0.5 mg/ml (groups C,D,F and H) in a total volume of 50 ul×TV/120 as indicated in Table 1. […] Total drug dose was calculated based on each animal's individual tumor size. […]

[4] = 24 hours after DMXAA i.t. treatment
[5] = doxorubicin 1 mg/kg i.t., 24 hours after injection, 84 genes
[6] = Yumm1.7 cells, doxorubicin 24 hours

| SMILES | Average spleen weight [1] [g] | Average tumor weight [1] [g] | Expression of IFN type I related genes (Type I IFN related genes) | ISG significantly upregulated compared to control (number) [2, 5] | ISG significantly upregulated compared to control (number) ([2]; doxorubicin 1 mg/kg i.t., 48 h) | ISG significantly upregulated compared to control (number) ([2]; doxorubicin 3 mg/kg i.t., 48 h) | Spleen weight (Yumm 1.7 cells) [g] | Effect on mouse survival [3] | further results |
| --- | --- | --- | --- | --- | --- | --- | --- | --- | --- |
| Nc1nc(Nc2ccc3c(c2)CC[C@@H](N2CCCC2)CC3)nn1-c1cc2c(nn1)-c1ccccc1CCC2 [Bemcentinib, bemcentinib] | 0.9333 | 1.556 | only a few upregulated genes | no ISG | none | No | 0.10 | do not show any effect | Lung macro metastasis ([1]; listed as Bem + PBS + Igg): 6 and 10+ (2×) and 5 (3×) and 0 and 4 and 2 and 10; Fold change of upregulated ISG [2, 4]: around 2 fold; ISG significantly upregulated compared to control (number) [2, 4]: 3; Effect on the IFNB mediated response (Yumm1.7 cells; Yumm1.7 cells treated with IFNB): appeared to increase the IFNB mediated response, although not reaching significance; Median survival (tumor volume 1000 mm^3) ([3]; days until tumor 1000 mm^3 or sacrifice due to severe symptoms): 34.5 days |
| COc1cccc2c1C(=O)c1c(O)c3c(c(O)c1C2=O)C[C@@](O)(C(=O)CO)C[C@@H]3O[C@H]1C[C@H](N)[C@H](O)[C@H](C)O1 [Doxorubicin, doxorubicin] | 1.16 | 1.51 | increase of expression | no ISG | one | No | 0.17 | do not show any effect | Lung macro metastasis ([1]; listed as Vehicle + Dox + Igg): 10+ (2×) and 6 and 3 and 0 (2×) and 4 (2×) and 5; Fold change of one upregulated ISG ([2]; doxorubicin 1 mg/kg i.t., 48 h): 3 fold; ISG significantly upregulated compared to control (number) ([2]; doxorubicin 3 mg/kg i.t., 24 h): one; ISG significantly upregulated compared to control (number) ([2]; doxorubicin 6 mg/kg i.t., 24 hours): 1; ISG significantly upregulated compared to control (number) ([2]; doxorubicin 6 mg/kg i.t., 48 hours): 8; ISG significantly upregulated compared to control (number) ([2]; doxorubicin 6 mg/kg i.t., 72 hours): 6; IFIT1 mRNA fold change (Yumm1.7 cells; [6]): 20 fold; OAS2 mRNA fold change (Yumm1.7 cells; [6]): 50 fold; RSAD2 mRNA fold change (Yumm1.7 cells; [6]): 20 fold; ISG significantly upregulated compared to control (number) (Yumm1.7 cells; Yumm1.7 cells, doxorubicin 24 hours, 21 ISG tested): 9 |
